In general, melting point refers to the temperature, or range, at which the solid turns liquid. The compound `O=C(O)c1ccc(CCc2ccc(NC(=O)c3c(NC(=O)c4cccc(S(=O)(=O)N(C5CC5)[C@H]5CC[C@@H](C(=O)O)CC5)c4)sc4c3CCCC4)cc2)cc1` [Example 5, 4-{2-[4-({[2-({3-[(cis-4-carboxycyclohexyl)(cyclopropyl)sulfamoyl]benzoyl}amino)-4,5,6,7-tetrahydro-1-benzothiophen-3-yl]carbonyl}amino)phenyl]ethyl}benzoic acid] returned a melting point of 186.8 °C.

For the origin of these results see patent US8729068B2, “Tetrahydrobenzothiophene compound” (Astellas Pharma Inc., priority 2010, dated 2014).
